# Data: patent US6126909A, “Process and apparatus for the production of BI-212 and a use thereof” (Arch Development Corporation, priority 1999, dated 2000)
# How the values were obtained:
# [1] = system: Ehrlich-Lettre Ascites carcinoma cells; assay: In vitro irradiation survival (clonogenic), monolayer; assay type: cell-based; details: dose increment reducing survival to 37 percent
# Experimental: In vitro studies were carried out using three well known cell lines, the cells from which were exposed to radiation from: (1) an X-ray source; (2) P-32 chromic phosphate; and (3) Bi-212 chloride. The three cell lines that were used are V-79, which is a Chinese hamster lung fibroblast, Ehrlich-Lettre Ascites carcinoma (ATCC CCL 77), which is an ascites producing -tumor, and NIH:OVCAR-3 (ATCC HTB 161), which is a human ovarian adenocarcinoma. These well known cell lines are predictive of what happens in vivo. The cells were grown as monolayers and into spheroid formations and subsequently irradiated, as described herein. […]
# The cell lines were also irradiated using Bi-212. […] The filter was purged with 1 ml of distilled deionized water, and the radioactivity was assayed using a calibrated 3×3-in. […]
# Cells were exposed over a period of four hours. The dose (D) per microCurie was calculated and corrected for decay as follows: [formula] where V=volume in milliliters, and […]
# Following plating, survival measurements were taken for each of the irradiated cell samples. […] The plates were then stained with crystal violet and colonies greater than 50 cells were scored. The surviving fraction was then determined.
# Intrinsic radiosensitivity (Do) was calculated from the survival curves. […]
# [2] = Solubility of Bi-212 at various pH values (0.22 μ filter); assay type: physicochemical
# Experimental: The solubility was measured by passing the solution through a 0.22 μ Nalgene® filter and measuring the activity of the resulting solution and the activity of the filter.
# [3] = Toxicity studies, intraperitoneal graded doses; assay type: in vivo, rabbit
# Experimental: In vivo studies were conducted to determine the distribution of Bi-212 produced using the above-noted process and to compare the Bi-212 distribution to the distribution of Pb-212 ferrous hydroxide in colloidal form. The in vivo studies were conducted using white, female New Zealand rabbits weighing about 4.5 kilograms ([…]) each. Studies were also conducted using rabbits to determine the toxicity levels, e.g., the maximum tolerated dose. Efficacy studies were conducted using 25 gram (gm) female Swiss-Webster mice inoculated with Ehrlich-Lettre Ascites carcinoma cells.
# The peritoneal cavities of rabbits were instilled with graded doses of Bi-212. The rabbits were followed until death or for up to three months after their blood counts normalized. The rabbits were necropsied at death or termination of the study and their organs were microscopically examined to determine the effect of the Bi-212 on healthy organs.
smiles,measurement,setting,value
"[212Bi] [Bi-212, bismuth-212]",D0 (intrinsic radiosensitivity),[1],0.65 Gy
same,Maintained in solution,[2]; acidic pH,maintained in solution at an acidic pH value
same,Activity in solution,[2]; pH 6,5.55 mCi
same,Activity on filter,[2]; pH 6,0.24 mCi
same,Percent activity in solution,[2]; pH 6,96%
same,Percent activity on filter,[2]; pH 6,4%
same,Activity in solution,[2]; pH 7,3.24 mCi
same,Activity on filter,[2]; pH 7,0.023 mCi
same,Percent activity in solution,[2]; pH 7,94%
same,Percent activity on filter,[2]; pH 7,6%
same,Activity in solution,[2]; pH 8,1.90 mCi
same,Activity on filter,[2]; pH 8,0.50 mCi
same,Percent activity in solution,[2]; pH 8,83%
same,Percent activity on filter,[2]; pH 8,17%
same,Activity in solution,[2]; pH 9,0.65 mCi
same,Activity on filter,[2]; pH 9,1.35 mCi
same,Percent activity in solution,[2]; pH 9,32%
same,Percent activity on filter,[2]; pH 9,68%
same,Solubility dependence on pH,[2]; radio-impurity-free solution,solubility increasing with a decrease in pH value
same,Microscopic examination of organs,"[3]; 60 mCi, three months after instillation",only mild blunting of intestinal villi
same,"Histology, small and large intestines",[3]; 80 mCi,marked individual cell necrosis of gland epithelium of the small and large intestines
same,Survival,[3]; 80 mCi,survived about three days
same,Histology,[3]; 100 mCi,diffuse epithelial necrosis
same,Survival,[3]; 100 mCi,survived about three days
same,Mortality,[3]; doses greater than 60 mCi,death within three days
same,Maximum dose tolerated,"[3]; rabbits, intraperitoneal",60 mCi
